Source: patent US20250368614A1, “COMPOUNDS AND METHODS FOR YAP/TEAD MODULATION AND INDICATIONS THEREFOR” (OPNA BIO SA, priority 2023, published 2025)

What follows are compounds tested on TEAD-dependent transcription (12XGTIIC TEAD response element luciferase reporter) in MSTO-211H cells (assay: TEAD-dependent transcription cell-based luciferase reporter assay in MSTO-211H+12XGTIIC cells). Details: Homo sapiens; MSTO-211H+12XGTIIC reporter cells, 24 hours compound incubation, luminescence normalized to cell viability signal, geometric mean; read-out: MSTO-211H GMean IC50 (uM) Cell Assay Reporter Cell Variant: TEAD.
Source text: Determine Inhibitor Activity Against TEAD-Dependent Transcription in a Cell-Based Reporter Assay
The human mesothelioma cell line MSTO-211H was stably transfected with a pGL4.21 plasmid containing a synthetic promoter with 12 copies of the GTIIC TEAD response element that drives the expression of a luciferase reporter gene^1 using Lipofectamine transfection reagent (Thermo Fisher). Transfected cells were selected using puromycin and single cell clones expressing this construct (referred to as MSTO-211H+12XGTIIC) were generated by limiting dilution. MSTO-211H cells was characterized by genetic alterations in key components of the Hippo pathway^2, resulting in up-regulation of YAP/TEAD-mediated transcription. […] To evaluate TEAD inhibitors, the MSTO-211H+12XGTIIC cell line was seeded in a 96-well plate in 50 μL of culture media at 1×10^4 cells per well and incubated at 37° C. overnight. Serial dilutions of compounds (in total volume of 50 μL of culture media) were added to the cells and incubated at 37° C. for 24 hours. Each plate included cells treated with DMSO as high controls and cells treated with 20 μM of the reference compound K-975 (a known TEAD inhibitor^3) as low controls. Cell viability was assayed by the addition of 25 μL of CellTiter-Fluor reagent (Promega) followed by a 30-minute incubation at 37° C. and quantification of the fluorescence signal (Ex400/Em505). Subsequently, luciferase expression was assayed by the addition of 25 μL of ONE-Glo reagent (Promega) followed by a 10-minute incubation at room temperature and quantification of the luminescence signal. The luminescence signal was normalized to the fluorescence signal to correct for any loss in cell viability over the 24-hour compound incubation period. The percentage of inhibition of normalized luminescence signal, indicative of compound-mediated inhibition of TEAD-dependent transcription, at individual compound concentrations relative to high and low controls was calculated. The data were analyzed by using nonlinear regression to generate IC50 values for individual compounds.
`O=C(CCS(=O)(=O)C(F)(F)F)N1CCc2cc(Nc3ccc(C(F)(F)F)cc3)ccc2C1` [Compound O-0205, 1-(6-((4-(trifluoromethyl)phenyl)amino)-3,4-dihydroisoquinolin-2(1H)-yl)-3-((trifluoromethyl)sulfonyl)propan-1-one] was tested, and the IC50 was 0.001 to 10 µM.
Work on `C=CC(=O)Nc1cc(C(=O)N2CCc3c(cccc3Nc3ccc(C(F)(F)F)cc3)C2)ccn1` [Compound O-0038, N-(4-(5-((4-(trifluoromethyl)phenyl)amino)-1,2,3,4-tetrahydroisoquinoline-2-carbonyl)pyridin-2-yl)acrylamide] yielded an IC50 of 0.001 to 10 µM.
`O=C(NC1CC1)N1CCC(C(=O)N2CCc3c(cccc3Nc3ccc(C(F)(F)F)c(F)c3)C2)C1` (stereo not drawn) [Compound O-0098, N-cyclopropyl-3-(5-((3-fluoro-4-(trifluoromethyl)phenyl)amino)-1,2,3,4-tetrahydroisoquinoline-2-carbonyl)pyrrolidine-1-carboxamide] gave an IC50 of 0.001 to 10 µM.
`CNS(=O)(=O)c1cccc(C(=O)N2CCc3c(cccc3Nc3ccc(C(F)(F)F)cc3)C2)c1` [Compound O-0200, N-methyl-3-(5-((4-(trifluoromethyl)phenyl)amino)-1,2,3,4-tetrahydroisoquinoline-2-carbonyl)benzenesulfonamide] showed an IC50 of 0.001 to 10 µM.
`O=C(NCCC(=O)N1CCc2c(cccc2Nc2ccc(C(F)(F)F)cc2F)C1)NC1CC1` [Compound O-0193, 1-cyclopropyl-3-(3-(5-((2-fluoro-4-(trifluoromethyl)phenyl)amino)-3,4-dihydroisoquinolin-2(1H)-yl)-3-oxopropyl)urea] gave an IC50 of 0.001 to 10 µM.
For `CS(=O)(=O)c1cc(C(=O)N2CCc3c(cccc3Nc3ccc(C(F)(F)F)cc3)C2)ccn1` [Compound O-0201, (2-(methylsulfonyl)pyridin-4-yl)(5-((4-(trifluoromethyl)phenyl)amino)-3,4-dihydroisoquinolin-2(1H)-yl)methanone], the IC50 was 0.001 to 10 µM.
Compound `CN(c1ccc(C(F)(F)F)cc1)c1cccc2c1CCN(C(=O)c1cccc(N)n1)C2` [Compound O-0014, (6-aminopyridin-2-yl)(5-(methyl(4-(trifluoromethyl)phenyl)amino)-3,4-dihydroisoquinolin-2(1H)-yl)methanone] has an IC50 of 0.001 to 10 µM.
`O=C(C1CCS(=O)(=O)CC1)N1CCc2cc(Nc3ccc(C(F)(F)F)cc3)ccc2C1` [Compound O-0208, (1,1-dioxidotetrahydro-2H-thiopyran-4-yl)(6-((4-(trifluoromethyl)phenyl)amino)-3,4-dihydroisoquinolin-2(1H)-yl)methanone] gave an IC50 of 0.001 to 10 µM.
`O=C1NC(=O)C(CC(=O)N2CCc3c(cccc3Nc3ccc(C(F)(F)F)c(F)c3)C2)N1` (stereo not drawn) [Compound O-0197, 5-(2-(5-((3-fluoro-4-(trifluoromethyl)phenyl)amino)-3,4-dihydroisoquinolin-2(1H)-yl)-2-oxoethyl)imidazolidine-2,4-dione] showed an IC50 of 0.001 to 10 µM.
For `O=C(NC1CC1)N1CCC(C(=O)N2CCc3c(cccc3Nc3ccc(C(F)(F)F)cn3)C2)C1` (stereo not drawn) [Compound O-0092, N-cyclopropyl-3-(5-((5-(trifluoromethyl)pyridin-2-yl)amino)-1,2,3,4-tetrahydroisoquinoline-2-carbonyl)pyrrolidine-1-carboxamide], the IC50 was 0.001 to 10 µM.
With `C=CC(=O)Nc1cccc(C(=O)N2CCc3c(cccc3Nc3ccc(C(F)(F)F)cc3)C2)c1` [Compound O-0034, N-(3-(5-((4-(trifluoromethyl)phenyl)amino)-1,2,3,4-tetrahydroisoquinoline-2-carbonyl)phenyl)acrylamide] the IC50 was 0.001 to 10 µM.
For `Nc1cncc(C(=O)N2CCc3c(cccc3Nc3ccc(C(F)(F)F)cc3)C2)c1` [Compound O-0031, (5-aminopyridin-3-yl)(5-((4-(trifluoromethyl)phenyl)amino)-3,4-dihydroisoquinolin-2(1H)-yl)methanone], the IC50 was 0.001 to 10 µM.
For `CN1CCN(CCCS(=O)(=O)N2CCc3c(cccc3Nc3ccc(C(F)(F)F)cc3)C2)CC1` [Compound O-0198, 2-((3-(4-methylpiperazin-1-yl)propyl)sulfonyl)-N-(4-(trifluoromethyl)phenyl)-1,2,3,4-tetrahydroisoquinolin-5-amine], the IC50 was 0.001 to 10 µM.
`O=C(NC1CC1)N1CCC(C(=O)N2CCc3c(cccc3Nc3ccc(C(F)(F)F)cc3F)C2)C1` (stereo not drawn) [Compound O-0094, N-cyclopropyl-3-(5-((2-fluoro-4-(trifluoromethyl)phenyl)amino)-1,2,3,4-tetrahydroisoquinoline-2-carbonyl)pyrrolidine-1-carboxamide] gave an IC50 of 0.001 to 10 µM.
Compound `O=C(CCc1cnc[nH]1)N1CCc2c(cccc2Nc2ccc(C(F)(F)F)cc2)C1` [Compound O-0054, 3-(1H-imidazol-5-yl)-1-(5-((4-(trifluoromethyl)phenyl)amino)-3,4-dihydroisoquinolin-2(1H)-yl)propan-1-one] has an IC50 of 0.001 to 10 µM.
Work on `O=C(Cc1cnco1)N1CCc2c(cccc2Nc2ccc(C(F)(F)F)cc2)C1` [Compound O-0004, 2-(oxazol-5-yl)-1-(5-((4-(trifluoromethyl)phenyl)amino)-3,4-dihydroisoquinolin-2(1H)-yl)ethan-1-one] yielded an IC50 of 0.001 to 10 µM.
Compound `CN(c1ccc(C(F)(F)F)cc1)c1ncnc2c1CCN(C(=O)CCS(=O)(=O)C(F)(F)F)C2` [Compound O-0025, 1-(4-(methyl(4-(trifluoromethyl)phenyl)amino)-5,8-dihydropyrido[3,4-d]pyrimidin-7(6H)-yl)-3-((trifluoromethyl)sulfonyl)propan-1-one] has an IC50 of 0.001 to 10 µM.
`CN(c1ccc(C(F)(F)F)cc1)c1cccc2c1CCN(C(=O)c1cccc(N)c1)C2` [Compound O-0013, (3-aminophenyl)(5-(methyl(4-(trifluoromethyl)phenyl)amino)-3,4-dihydroisoquinolin-2(1H)-yl)methanone] gave an IC50 of 0.001 to 10 µM.
With `CS(=O)(=O)CCC(=O)N1CCc2c(cccc2Nc2ccc(C(F)(F)F)cc2)C1` [Compound O-0001, 3-(methylsulfonyl)-1-(5-((4-(trifluoromethyl)phenyl)amino)-3,4-dihydroisoquinolin-2(1H)-yl)propan-1-one] the IC50 was 0.001 to 10 µM.
`Nc1cccc(C(=O)N2CCc3c(cccc3Nc3ccc(C(F)(F)F)cc3)C2)c1` [Compound O-0028, (3-aminophenyl)(5-((4-(trifluoromethyl)phenyl)amino)-3,4-dihydroisoquinolin-2(1H)-yl)methanone] was tested, and the IC50 was 10 to 100 µM.
`O=C(CCS(=O)(=O)C(F)(F)F)N1CCc2c(cccc2Nc2ccc(C(F)(F)F)cc2)C1` [Compound O-0010, 1-(5-((4-(trifluoromethyl)phenyl)amino)-3,4-dihydroisoquinolin-2(1H)-yl)-3-((trifluoromethyl)sulfonyl)propan-1-one] was tested, and the IC50 was 0.001 to 10 µM.
For `Nc1nccc(C(=O)N2CCc3c(cccc3Nc3ccc(C(F)(F)F)cc3)C2)n1` [Compound O-0033, (2-aminopyrimidin-4-yl)(5-((4-(trifluoromethyl)phenyl)amino)-3,4-dihydroisoquinolin-2(1H)-yl)methanone], the IC50 was 0.001 to 10 µM.
With `Nc1nc(C(=O)N2CCc3c(cccc3Nc3ccc(C(F)(F)F)cc3)C2)cs1` [Compound O-0006, (2-aminothiazol-4-yl)(5-((4-(trifluoromethyl)phenyl)amino)-3,4-dihydroisoquinolin-2(1H)-yl)methanone] the IC50 was 0.001 to 10 µM.
Compound `O=C(c1cccc2[nH]c(C(F)(F)F)nc12)N1CCc2c(cccc2Nc2ccc(C(F)(F)F)cc2)C1` [Compound O-0058, (2-(trifluoromethyl)-1H-benzo[d]imidazol-4-yl)(5-((4-(trifluoromethyl)phenyl)amino)-3,4-dihydroisoquinolin-2(1H)-yl)methanone] has an IC50 of 0.001 to 10 µM.
